Reference: patent US20080287398A1, “COLD MENTHOL RECEPTOR-1 ANTAGONISTS” (priority 2007, published 2008)
Several values for one entry are separate records, joined by “and”; a condition that tells them apart may be missing. Identical values can stand only once. Like-named read-outs stand apart in the source and are kept apart here.

Biological target: T1, canine TRPM8 (Canis lupus familiaris, UniProt Q1A7N1)
T1 construct: expressed in transfected cells
Assay: In vitro canine TRPM8 functional assay (Ca2+-sensitive dye, FLIPR/FDSS, icilin activation)
Format: cell-based
Settings: HEK293 cells expressing canine TRPM8, icilin activation; for % I (0.5 μM): 0.5 μM compound; for IC50: eight-point dose-response; for % I (1 μM): 1 μM compound; for % I (5 μM): 5 μM compound
Method: The functional activity of compounds of Formula (I) was determined by measuring changes in intracellular calcium concentration using a Ca^2+-sensitive fluorescent dye. The changes in fluorescent signal were monitored by a fluorescence plate reader, either a FLIPR™ (Molecular Devices) or FDSS (Hamamatsu).
HEK293 cells stably expressing canine TRPM8 were routinely grown as monolayers in Dulbecco's minimum essential medium supplemented with 10% FBS, 1 mM L-glutamine, 100 units/mL penicillin, 100 ug/mL streptomycin and 400 μg/mL G418. Cells were maintained in 5% CO2 at 37° C. At 24 hrs prior to assay, cells were seeded in clear-base poly-D-lysine coated 384-well plates (BD Biosciences, NJ, USA) at a density of 5,000 cells per well in culture medium and grown overnight in 5% CO2 at 37° C. On assay day, growth media was removed and cells were loaded with Calcium 3 Dye (Molecular Devices) for 35 min at 37° C., under 5% CO2 and then for 25 min at room temperature and atmosphere. Subsequently, cells were tested for agonist-induced increases in intracellular Ca^2+ levels using FLIPR™ or FDSS. Cells were challenged with a compound of Formula (I) (at varying concentrations) and intracellular Ca^2+ was measured for 5 min prior to the addition of icilin to all wells to achieve a final concentration which produces approximately an 80% maximal response.
Basal FI was subtracted prior to normalizing data to percent of maximal response. Curves were generated using the average of quadruplicate wells for each data point, were analyzed using nonlinear regression of either sigmoidal dose response or sigmoidal dose response (variable slope). Finally, the EC50 and IC50 values were calculated with the best-fit dose curve determined by GraphPad Prism.

T1 sequence (Q1A7N1 1-1104): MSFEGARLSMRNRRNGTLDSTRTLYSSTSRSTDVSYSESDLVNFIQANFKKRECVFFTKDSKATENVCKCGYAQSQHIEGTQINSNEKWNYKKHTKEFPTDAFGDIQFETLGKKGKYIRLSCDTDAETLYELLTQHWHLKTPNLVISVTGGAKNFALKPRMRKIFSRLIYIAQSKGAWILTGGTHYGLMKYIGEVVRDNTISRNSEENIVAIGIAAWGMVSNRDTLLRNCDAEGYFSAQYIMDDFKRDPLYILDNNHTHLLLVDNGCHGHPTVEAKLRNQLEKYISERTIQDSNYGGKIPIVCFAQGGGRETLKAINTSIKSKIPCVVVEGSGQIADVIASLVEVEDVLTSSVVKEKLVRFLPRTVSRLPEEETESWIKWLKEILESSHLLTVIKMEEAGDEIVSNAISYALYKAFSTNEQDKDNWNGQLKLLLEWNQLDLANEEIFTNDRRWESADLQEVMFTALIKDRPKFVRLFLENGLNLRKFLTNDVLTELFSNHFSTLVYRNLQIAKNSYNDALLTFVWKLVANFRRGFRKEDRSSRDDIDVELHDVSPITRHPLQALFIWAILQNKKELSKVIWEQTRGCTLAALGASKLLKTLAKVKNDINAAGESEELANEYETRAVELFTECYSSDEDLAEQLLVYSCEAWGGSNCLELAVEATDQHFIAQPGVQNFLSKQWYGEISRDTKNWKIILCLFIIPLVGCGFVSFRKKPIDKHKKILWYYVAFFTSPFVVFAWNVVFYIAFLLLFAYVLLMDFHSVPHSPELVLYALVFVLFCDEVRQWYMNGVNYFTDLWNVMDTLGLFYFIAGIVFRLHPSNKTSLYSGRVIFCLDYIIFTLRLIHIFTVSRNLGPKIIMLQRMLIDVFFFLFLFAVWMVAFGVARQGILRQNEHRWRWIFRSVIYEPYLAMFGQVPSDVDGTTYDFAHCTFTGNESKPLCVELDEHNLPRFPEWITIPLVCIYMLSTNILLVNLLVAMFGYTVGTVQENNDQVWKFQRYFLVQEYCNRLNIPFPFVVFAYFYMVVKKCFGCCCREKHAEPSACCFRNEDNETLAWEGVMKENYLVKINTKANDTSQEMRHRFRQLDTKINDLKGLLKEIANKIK

Row | Compound | % I (0.5 μM) | IC50 (read-out: IC50) | % I (1 μM) | other results
1 | CC(C)OP(=O)(OC(C)C)C(Cc1c(F)c(F)c(O)c(F)c1F)c1sc2ccccc2c1Br (racemic) [Cpd 229] | 95% | 0.156 µM | – | –
2 | CCOP(=O)(OCC)C(Cc1c(Cl)ccc(C)c1F)c1sc2ccccc2c1C (centres unmarked) [Cpd 60] | – | 0.28 µM | 100% | –
3 | CCOP(=O)(OCC)C(Cc1ccc2ccccc2c1)c1cc2ccccc2s1 (centres unmarked) [Cpd 83] | – | 0.45 µM | 84% | –
4 | CCOP(=O)(OCC)C(Cc1ccccc1C)c1cc2ccccc2s1 (centres unmarked) [Cpd 89] | – | 0.52 µM | 91% | % I (5 μM): 100%
5 | CCOP(=O)(OCC)C(Cc1ccc(F)c(F)c1)c1sc2ccccc2c1-c1cccc(F)c1 (centres unmarked) [Cpd 217, {2-(3,4-Difluoro-phenyl)-1-[3-(3-fluoro-phenyl)-benzo[b]thiophen-2-yl)-ethyl]-phosphonic acid diethyl ester] | – | – | – | inhibition at 0.5 µM (HEK293, read-out: % I (0.5 μM), 0.5 μM compound): 100%; IC50 (IC50 (μM)): 0.142 µM
6 | CC(C)OP(=O)(OC(C)C)C(Cc1cc(O)c(Cl)cc1F)c1sc2ccccc2c1Br (racemic) [Cpd 232] | 99% | 0.063 µM | – | –
7 | CCOP(=O)(OCC)C(Cc1cccc(OC)c1)c1sc2ccccc2c1Br (centres unmarked) [Cpd 314] | 103% and 104% | 0.029 µM and 0.021 µM | – | –
8 | CC(C)OP(=O)(OC(C)C)C(Cc1ccc(F)c(F)c1)c1sc2cccc(F)c2c1Br (centres unmarked) [Cpd 221, [1-(3-Bromo-4-fluoro-benzo[b]thiophen-2-yl)-2-(3,4-difluoro-phenyl)-ethyl]-phosphonic acid diisopropyl ester] | – | 0.032 µM | – | inhibition at 0.5 µM (HEK293, 0.5 μM compound, read-out: % I (0.5 μM)): 102%
9 | [2-(3,4-Difluoro-phenyl)-1-(3-methyl-benzo[b]thiophene-2-yl)-ethyl]-methyl-phosphonic acid ethyl ester [Cpd 30] | – | 0.12 µM and 0.2 µM | 100% and 99% | –
10 | CC(C)OP(=O)(OC(C)C)C(Cc1ccc(F)c(C(F)(F)F)c1)c1c(Br)c2ccccc2n1S(C)(=O)=O (centres unmarked) [Cpd 330, [1-(3-Bromo-1-methanesulfonly-1H-indol-2-yl)-2-(4-fluoro-3-trifluoromethyl-phenyl)-ethyl]-phosphonic acid diisopropyl ester] | – | 0.137 µM | – | –
11 | CCOP(=O)(OCC)C(Cc1cccc(C(F)(F)F)c1Cl)c1sc2ccccc2c1Cl (racemic) [Cpd 280] | 101% | 0.227 µM | – | –
12 | CCOP(=O)(OCC)C(Cc1ccc(F)c(F)c1)c1sc2ccccc2c1-c1ccccc1F (racemic) [Cpd 216] | 100% | 0.126 µM | – | –
13 | CC(C)OP(=O)(OC(C)C)C(Cc1cc(Cl)ccc1F)c1sc2ccccc2c1Cl (racemic) [Cpd 303] | 102% | 0.049 µM | – | –
14 | CC(C)OP(=O)(OC(C)C)C(Cc1cc(C(F)(F)F)ccc1F)c1sc2ccccc2c1Cl (racemic) [Cpd 172] | 104% | 0.105 µM | – | –
15 | CCOP(=O)(OCC)C(Cc1c(Cl)cccc1Cl)c1cc2ccccc2s1 (centres unmarked) [Cpd 95] | – | 0.6 µM | 89% | % I (5 μM): 100%
16 | CCOP(=O)(OCC)C(Cc1cc(F)cc(F)c1Cl)c1sc2ccccc2c1C (centres unmarked) [Cpd 28] | – | 0.11 µM | 100% | –
17 | CC(C)OP(=O)(OC(C)C)C(Cc1ccccc1F)c1sc2ccccc2c1Br (centres unmarked) [Cpd 196] | – | 0.048 µM | 100% | –
18 | CCOP(=O)(OCC)C(Cc1ccc(O)c(C(F)(F)F)c1)c1sc2ccccc2c1Br (racemic) [Cpd 233] | 70% | – | – | –
19 | CCOP(=O)(OCC)C(Cc1ccccc1Cl)c1sc2ccccc2c1C (centres unmarked) [Cpd 48] | – | 0.169 µM | 100% | –
20 | CCOP(=O)(OCC)C(Cc1ccc(F)c(F)c1)c1sc2cccc(F)c2c1Br (racemic) [Cpd 224] | 102% | 0.044 µM | – | –
21 | CCOP(=O)(OCC)C(Cc1cccc(Cl)c1Cl)c1cc2ccccc2s1 (centres unmarked) [Cpd 100] | – | 0.73 µM | 82% | –
22 | CCOP(=O)(OCC)C(Cc1ccc(F)c(Cl)c1)c1sc2ccccc2c1Cl (racemic) [Cpd 297] | 103% | 0.04 µM | – | –
